From ChEMBL document CHEMBL1138637, “Discovery of potent pyrrolidone-based HIV-1 protease inhibitors with enhanced drug-like properties” (Bioorg Med Chem Lett, 2004)

Molecular target: T1, Human immunodeficiency virus type 1 protease (Human immunodeficiency virus 1, UniProt Q72874)
Assay: Concentration required to in inhibit HIV-1 protease by 50%

SMILES	IC50
C=CCC1OC[C@H](Cc2ccccc2)N(C[C@H](O)CN(CC2CCCC2)S(=O)(=O)c2ccc(OC)cc2)C1=O (stereo not given in full)	2 nM
COc1ccc(S(=O)(=O)N(CC2CCCC2)C[C@@H](O)CN2C(=O)C(Cc3ccccc3)OC[C@@H]2Cc2ccccc2)cc1 (stereo not given in full)	30 nM

Molecular target: T1, Human immunodeficiency virus type 1 protease
Assay: Potency to inhibit HIV-1 protease

SMILES	Ki
CCOC(=O)CNC(=O)Nc1cccc(C[C@H]2C[C@H](Cc3ccccc3)N(C[C@@H](O)C[C@@H](Cc3ccccc3)C(=O)N[C@@H]3c4ccccc4C[C@H]3O)C2=O)c1	0.1 nM
O=C(NC1c2ccccc2C[C@H]1O)[C@H](Cc1ccccc1)C[C@H](O)CN1C(=O)C(Cc2cccc(O)c2)C[C@@H]1Cc1ccccc1 (single isomer, unassigned; diastereomer 1)	0.05 nM
Nc1ccc(CC2C[C@H](Cc3ccccc3)N(C[C@@H](O)C[C@@H](Cc3ccccc3)C(=O)NC3c4ccccc4C[C@H]3O)C2=O)cc1 (stereo not given in full)	2.3 nM
NC(=O)Cc1cccc(C[C@H]2C[C@H](Cc3ccccc3)N(C[C@@H](O)C[C@@H](Cc3ccccc3)C(=O)NC3c4ccccc4C[C@H]3O)C2=O)c1 (stereo not given in full)	0.09 nM
N#Cc1ccc(CC2C[C@H](Cc3ccccc3)N(C[C@@H](O)C[C@@H](Cc3ccccc3)C(=O)NC3c4ccccc4C[C@H]3O)C2=O)cc1 (stereo not given in full)	0.34 nM
NC(=O)c1cccc(C[C@H]2C[C@H](Cc3ccccc3)N(C[C@@H](O)C[C@@H](Cc3ccc(OCCO)cc3)C(=O)N[C@@H]3c4ccccc4C[C@H]3O)C2=O)c1	0.05 nM
O=C(NCCN1CCOCC1)c1cccc(C[C@H]2C[C@H](Cc3ccccc3)N(C[C@@H](O)C[C@@H](Cc3ccccc3)C(=O)N[C@@H]3c4ccccc4C[C@H]3O)C2=O)c1	0.15 nM
O=C(NCCOCCO)c1cccc(C[C@H]2C[C@H](Cc3ccccc3)N(C[C@@H](O)C[C@@H](Cc3ccccc3)C(=O)N[C@@H]3c4ccccc4C[C@H]3O)C2=O)c1	0.24 nM
NC(=O)c1cccc(C[C@H]2C[C@H](Cc3ccccc3)N(C[C@@H](O)C[C@@H](Cc3ccccc3)C(=O)N[C@@H]3c4ccccc4C[C@H]3O)C2=O)c1	0.1 nM
C=CC[C@H]1C[C@H](Cc2ccccc2)N(C[C@@H](O)C[C@@H](Cc2ccccc2)C(=O)NC2c3ccccc3C[C@H]2O)C1=O (stereo not given in full)	0.45 nM
N#Cc1cccc(CC2C[C@H](Cc3ccccc3)N(C[C@@H](O)C[C@@H](Cc3ccccc3)C(=O)NC3c4ccccc4C[C@H]3O)C2=O)c1 (single isomer, unassigned; diastereomer 1)	0.05 nM
CCNC(=O)Nc1cccc(C[C@H]2C[C@H](Cc3ccccc3)N(C[C@@H](O)C[C@@H](Cc3ccccc3)C(=O)NC3c4ccccc4C[C@H]3O)C2=O)c1 (stereo not given in full)	0.2 nM
O=C(NC1c2ccccc2C[C@H]1O)[C@H](Cc1ccccc1)C[C@H](O)CN1C(=O)C(Cc2cccnc2)C[C@@H]1Cc1ccccc1 (single isomer, unassigned; diastereomer 2)	14 nM
Nc1cccc(CC2C[C@H](Cc3ccccc3)N(C[C@@H](O)C[C@@H](Cc3ccccc3)C(=O)NC3c4ccccc4C[C@H]3O)C2=O)c1 (single isomer, unassigned; diastereomer 1)	0.1 nM
O=C(NC1c2ccccc2C[C@H]1O)[C@H](Cc1ccccc1)C[C@H](O)CN1C(=O)C(Cc2ccncc2)C[C@@H]1Cc1ccccc1 (stereo not given in full)	0.31 nM
N#CCOc1cccc(C[C@H]2C[C@H](Cc3ccccc3)N(C[C@@H](O)C[C@@H](Cc3ccccc3)C(=O)NC3c4ccccc4C[C@H]3O)C2=O)c1 (stereo not given in full)	0.08 nM
COC(=O)c1cccc(CC2C[C@H](Cc3ccccc3)N(C[C@@H](O)C[C@@H](Cc3ccccc3)C(=O)NC3c4ccccc4C[C@H]3O)C2=O)c1 (single isomer, unassigned; diastereomer 1)	0.42 nM
O=C(NC1c2ccccc2C[C@H]1O)[C@H](Cc1ccccc1)C[C@H](O)CN1C(=O)C(Cc2cccnc2)C[C@@H]1Cc1ccccc1 (stereo in doubt)	0.17 nM
